# Structures can show the parent of a compound that is named as a salt. Where two headings read alike, the source gives them in different places.
# How the values were obtained:
# [1] = system: rat hepatic microsomal PTPases; test: Inhibition of tri-phosphorylated insulin receptor dodecaphosphopeptide dephosphorylation by rat hepatic PTPases (malachite green); type: biochemical; settings: rat liver microsomal fraction; for % Change from Control: PTPase activity, compound at 50 µM; for IC50: % Change from Control
# diabetic (ob/ob) mice = test: Blood glucose lowering in diabetic (ob/ob) mice; type: in vivo; settings: Mus musculus, po, cells marked a = no significant activity (p<0.05) at this dose
# Human recombinant PTP1B = target: T1, Human recombinant PTP1B (Homo sapiens, UniProt P18031); test: Inhibition of tri-phosphorylated insulin receptor dodecaphosphopeptide dephosphorylation by hPTP1B (malachite green); type: biochemical; settings: for IC50: recombinant PTP1B, dodecaphosphopeptide substrate
# T1 construct: made in house
# T1 sequence (P18031 1-435): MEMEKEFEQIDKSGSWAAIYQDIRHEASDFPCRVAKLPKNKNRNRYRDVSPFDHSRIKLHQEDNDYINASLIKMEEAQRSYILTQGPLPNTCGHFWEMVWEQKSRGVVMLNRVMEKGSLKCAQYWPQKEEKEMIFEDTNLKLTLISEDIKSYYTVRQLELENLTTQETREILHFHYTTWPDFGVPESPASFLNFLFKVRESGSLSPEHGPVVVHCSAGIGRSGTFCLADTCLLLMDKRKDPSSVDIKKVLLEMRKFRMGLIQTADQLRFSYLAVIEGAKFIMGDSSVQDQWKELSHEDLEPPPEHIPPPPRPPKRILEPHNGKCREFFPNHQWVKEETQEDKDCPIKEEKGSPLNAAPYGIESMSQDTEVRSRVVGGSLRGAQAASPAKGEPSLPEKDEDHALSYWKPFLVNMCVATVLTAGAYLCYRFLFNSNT
# [2] = read-out: % Change Insulin from Vehicle
# [3] = plasma glucose, read-out: % Change Glucose from Vehicle
% Change from Control [1] [%],IC50 (Human recombinant PTP1B) [nM],Compound,change in vivo at 25 mg/kg (diabetic (ob/ob) mice; [3]) [%],also measured
-63,1320,"C[C@@H](Oc1ccc(-c2ccc(-c3c(Cc4ccccc4)oc4ccccc34)cc2)cc1)C(=O)O [Example 17, (2R)-2-[4'-(2-Benzyl-benzofuran-3-yl)-biphenyl-4-yloxy]-propionic acid]",–,change in vivo at 100 mg/kg (diabetic (ob/ob) mice; [2]): -94.4%; change in vivo at 100 mg/kg (diabetic (ob/ob) mice; [3]): 13.7%
–,178,O=C(O)CCCOc1ccc(-c2ccc(-c3c(Cc4ccccc4)sc4ccccc34)cc2)cc1Br [Example 42],-10.6,change in vivo at 25 mg/kg (diabetic (ob/ob) mice; [2]): 9.9%
-50,–,"O=C(O)C(Cc1ccccc1)Oc1ccc(-c2ccc(-c3c(Cc4ccccc4)sc4ccccc34)cc2)cc1 (centres unmarked) [Example 13, 2-[4'-(2-Benzyl-benzo[b]thiophen-3-yl)-biphenyl-4-yloxy]-3-phenyl-propionic acid]",–,change in vivo at 100 mg/kg (diabetic (ob/ob) mice; [2]): 5%; change in vivo at 100 mg/kg (diabetic (ob/ob) mice; [3]): -36.7%
–,213,"COc1ccc(Cc2sc3ccccc3c2-c2ccc(-c3ccc(O[C@H](Cc4ccccc4)C(=O)O)cc3)cc2)cc1OC [Example 25, (2R)-2-{4'-[2-(3,4-Dimethoxy-benzyl)-benzo[b]thiophen-3-yl]-biphenyl-4-yloxy}-3-phenyl-propionic acid]",–,IC50 [1]: 17.9 µM
–,58,"O=C(O)[C@@H](Cc1ccccc1)Oc1ccc(-c2ccc(-c3c(Cc4ccccc4)sc4ccccc34)cc2)cc1Br [Example 36, (2R)-2-[4'-(2-Benzyl-benzo[b]thiophene-3-yl)-3-bromo-biphenyl-4-yloxy]-3-phenyl-propionic acid]",–,IC50 [1]: 17.9 µM

# Continued, compound first:
Compound,% Change from Control [1] [%],IC50 (Human recombinant PTP1B) [nM],change in vivo at 25 mg/kg (diabetic (ob/ob) mice; [3]) [%],also measured
"CC(Cc1ccccc1)(Oc1ccc(-c2ccc(-c3c(Cc4ccccc4)oc4ccccc34)cc2)cc1)C(=O)O (centres unmarked) [Example 24, 2-[4'-(2-Benzyl-benzofuran-3-yl)-biphenyl-4-yloxy]-2-methyl-3-phenyl-propionic acid]",–,293,-30.5,–
"COc1ccc(-c2cc(-c3ccc(-c4c(Cc5ccccc5)oc5ccccc45)cc3)ccc2O[C@@H](Cc2ccccc2)C(=O)O)cc1 [Example 55, (2S)-2-[4-(2-benzyl-benzofuran-3-yl)-4""-methoxy-[1,1';3',1'']terphenyl-4'-yloxy]-3-phenyl-propionic acid]",–,43,-13.6,change in vivo at 25 mg/kg (diabetic (ob/ob) mice; [2]): 35.4%
"O=C(O)COc1ccc(-c2ccc(-c3c(Br)oc4ccccc34)cc2)cc1 [Example 6, [4'-(2-Bromo-benzofuran-3-yl)-biphenyl-4-yloxy]-acetic acid]",-71,–,–,"inhibition at 2.5 µM (Human recombinant PTP1B; compound at 2.5 uM, read-out: change of PTP1B activity (percent of phosphatase control)): 15%"
"O=C(O)[C@@H](CCN1C(=O)c2ccccc2C1=O)Oc1ccc(-c2ccc(-c3c(Cc4ccccc4)oc4ccccc34)cc2)cc1 [Example 48, (2R)-2-[4'-(2-benzyl-benzofuran-3-yl)-biphenyl-4-yloxy]-4-(1,3-dioxo-1,3-dihydro-isoindol-2-yl)-butyric acid]",–,341,4.7,change in vivo at 25 mg/kg (diabetic (ob/ob) mice; [2]): -30%
"O=C(O)[C@@H](Cc1ccccc1)Oc1ccc(-c2ccc(-c3ccsc3Cc3ccccc3)cc2)cc1 [Example 29, (2R)-2-[4'-(2-Benzyl-thiophene-3-yl)-biphenyl-4-yloxy]-3-phenyl-propionic acid]",-19,970,–,–
O=C(c1ccccc1)c1oc2ccccc2c1-c1ccc(-c2ccc(OC(Cc3ccccc3)C(=O)O)cc2)cc1 (centres unmarked) [Example 14],-55,–,–,change in vivo at 100 mg/kg (diabetic (ob/ob) mice; [3]): -39%
"O=C(O)[C@@H](Cc1ccccc1)Oc1ccc(-c2ccc(-c3c(C(O)c4ccccc4)oc4ccccc34)cc2)cc1 (stereo partly drawn) [Example 22, (2R)-2-{4'-[2-(Hydroxy-phenyl-methyl)-benzofuran-3-yl)-biphenyl-4-yloxy]-3-phenyl-propionic acid]",-55,118,–,–
"O=C(O)[C@H](Cc1ccccc1)Oc1ccc(-c2ccc(-c3c(Cc4ccccc4)oc4ccccc34)cc2)cc1 [Example 16, (2S)-2-[4'-(2-Benzyl-benzofuran-3-yl)-biphenyl-4-yloxy]-3-phenyl-propionic acid tromethamine salt]",-53,397,–,–
